The source of these data is article PMC10054091, “Maleic Acid as a Co-Former for Pharmaceutically Active GABA Derivatives: Mechanochemistry or Solvent Crystallization?” (Materials, 2023).

Values after ≈ are worked out from the molar mass of the structure shown. Values joined by “and” are separate entries in the source; they are usually repeats but may differ in a detail not shown here. Equal values may be shown once.

The nature of series [1]: Solubility in aqueous medium by 1H-NMR of saturated solutions. On the procedure:
Solubilities: Determination of substance solubilities were performed through ^1H-NMR spectroscopy with a Bruker Avance III NMR-spectrometer at 600 MHz. Saturated solutions of crystalline material were placed in an incubator at 25 °C and moved for 60 min^−1. Three samples of each investigated substance were left for three days under these conditions. Subsequently, 50 μL of the solution was removed from the samples and added to 450 μL of D2O for ^1H-NMR measurements. Solubility was determined by the ratio of integrated solvent to substance peak. Solubility values are presented as averages over the recorded samples with the error margin according to their standard deviation. […]
7 Solubility determination details
Solubilities were determined with 1H-NMR. Three samples for each single compound and three samples for each received maleate gained through grinding or solvent crystalliz ation were prepared. For this, dispersions of the investigated compounds in water were prepared in such a way that no complete dissolution would occur after three days at 25 °C in an incubator shaking with 60 min -1. Subsequently, 50 μL of liquid were removed from the samples and added to 450 μL of D 2O prepared in an NMR-tube. 1H-NMR measurements were conducted on a Bruker Avance III NMR-spectrometer at 600 MHz. Solubilities were determined by phase and baseline correction of the received spectrum in MestReNova software x64 14.2.0, application of D 2O shift on the solvent peak from the MestReNova […]
database. Integration of a chosen signal in the received spectrum and furt her integration of the solvent signal. The latter signal was always integrated in the borders of 5.000 – 4.600 ppm, the product signals were integrated in as narrow a range as possible ( Table S7). Trace water in D 2O w as considered negligible. Solubilities were calculated by the following […]
Where S p is the solubility of the API in gL -1, M p is the molar mass of the targeted API in g mol-1, I w is the value of the water integral received, n is an adjustment factor necessary if […]
= 2 because solvent is water), M w is the molar mass of water in gmol -1 and ρw is the density of water at 25 °C in gL-1. Error was calculated as the standard deviation of the three recorded samples according to Equation 2.
Here V is the standard deviation, x is the average of the three solubility values, x̅ each single solubility value and n the number of samples, three.

For series [2] the following is noted: given enough time. On the procedure: PXRD: Powder patterns were recorded on a Rigaku Miniflex 300 powder diffractometer with a Cu-Source and Kα radiation at […] in Θ/2Θ-geometry. Measurements were conducted at ambient temperature in a range of 5–50° 2Θ.
The conditions of series [3]: cited from earlier work.
The mark [4] stands for this setting: API solubility, aqueous medium, 25 °C, saturated solutions after three days, 1H-NMR, average of three samples, _M = mechanochemically prepared sample.
The mark [5] stands for this setting: product obtained by grinding (mechanochemical), water, 25 °C, three days.
Where [6] appears, read: product obtained from solution (solvent product), water, 25 °C, three days.
Setting [7] is: Table S7, water, 25 °C, three days, three samples, _sol = solvent crystallization, _mill = grinding.
The mark [8] stands for this setting: aqueous medium, 25 °C, three days.

On to `CC(C)CC(CN)CC(=O)O.O=C(O)C=CC(=O)O` (racemic) [(rac)-3-MA, (rac)-Pregabalin maleate], for which the Solubility came out at 719 gL^−1 in series [1] (setting [4]); 556 gL^−1 in series [1] (API solubility, aqueous medium, 25 °C, saturated solutions after three days, 1H-NMR, average of three samples, _M = mechanochemically prepared sample, listed as (rac)-3-MA_M); 556 ± 19 gL^−1 in series [1] (setting [5]); 719 ± 10 gL^−1 in series [1] (setting [6]). The “Sp ± V (solubility of the API ± standard deviation)” value is 559 ± 19 gL-1 in series [1] (Table S7, water, 25 °C, three days, three samples, _sol = solvent crystallization, _mill = grinding, listed as (rac)-3-MA_mill) and 719 ± 10 gL-1 in series [1] (Table S7, water, 25 °C, three days, three samples, _sol = solvent crystallization, _mill = grinding, listed as (rac)-3-MA_sol).
For the compound `CC(C)CC(CN)CC(=O)O.O=C(O)C=CC(=O)O` (racemic) [(rac)-3-MA-I, (rac)-Pregabalin maleate I], the “Phase stability of the solid form over time” value in series [2] is on record as “converts to (rac)-3-MA-II”.
A word on the solubility (thermodynamic): it is the concentration in solution at equilibrium with solid. For `CC(C)CC(CN)CC(=O)O` (racemic) [(rac)-3•H2O, (rac)-Pregabalin hydrate, reference compound], the “Sp ± V (solubility of the API ± standard deviation)” value in series [1] (setting [7]) is given as 33 ± 1 gL-1. In addition, in series [1] (aqueous medium, 25 °C), the “Increase of API solubility in its maleate compared to the pure form” value (“Increase of API solubility” for short) is recorded as 23 fold. For the same compound, the thermodynamic solubility at 3 days in series [1] (water) turned out to be 33 mg/mL.
Take `NCC1(CC(=O)O)CCCCC1.O=C(O)C=CC(=O)O` [2-MA, Gabapentin maleate]: the Solubility in series [1] (setting [4]) came to 218 ± 8 gL^−1; in series [1] (API solubility, aqueous medium, 25 °C, saturated solutions after three days, 1H-NMR, average of three samples, _M = mechanochemically prepared sample, listed as 2-MA_M), 218 gL^−1. Also, in series [1] (setting [7]), the “Sp ± V (solubility of the API ± standard deviation)” value was found to be 218 ± 8 gL-1.
In the case of `NCC(CC(=O)O)c1ccccc1.O=C(O)C=CC(=O)O` (stereo not drawn) [4-MA, Phenibut maleate], the Solubility in series [1] (setting [4]) is listed as 124 gL^−1; in series [1] (API solubility, aqueous medium, 25 °C, saturated solutions after three days, 1H-NMR, average of three samples, _M = mechanochemically prepared sample, listed as 4-MA_M), 128 gL^−1. In addition, the “Sp ± V (solubility of the API ± standard deviation)” value in series [1] (Table S7, water, 25 °C, three days, three samples, _sol = solvent crystallization, _mill = grinding, listed as 4-MA_mill) is given as 128 ± 8 gL-1; in series [1] (Table S7, water, 25 °C, three days, three samples, _sol = solvent crystallization, _mill = grinding, listed as 4-MA_sol) it was 124 ± 4 gL-1. In addition, the “Change of solubility of the maleate versus the pure API (in words)” value in series [1] (setting [8]) was “uniform increases in solubility”.
`NCC(CC(=O)O)c1ccc(Cl)cc1.O=C(O)C=CC(=O)O` (stereo not drawn) [5-MA, Baclofen maleate] gave a Solubility in series [1] (setting [4]) of 6 gL^−1. In addition, the “Sp ± V (solubility of the API ± standard deviation)” value came to 6 ± 0.6 gL-1 in series [1] (Table S7, water, 25 °C, three days, three samples, _sol = solvent crystallization, _mill = grinding, listed as 5-MA_mill) and 6 ± 0.3 gL-1 in series [1] (Table S7, water, 25 °C, three days, three samples, _sol = solvent crystallization, _mill = grinding, listed as 5-MA_sol). In addition, the “Change of solubility of the maleate versus the pure API (in words)” value in series [1] (setting [8]) was “uniform increases in solubility”.
For the compound `CC(C)C[C@H](CN)CC(=O)O` [(S)-3, (S)-Pregabalin, reference compound], in series [1] (setting [7]), the “Sp ± V (solubility of the API ± standard deviation)” value came out at 41 ± 1 gL-1. Also, the “Increase of API solubility” value in series [1] (aqueous medium, 25 °C, listed as (S)-Pregabalin) was 21 fold. Besides, in series [1] (water), the solubility (thermodynamic) at 3 days was determined as 41 mg/mL (≈ 257 mM).
Take `O=C(O)/C=C\C(=O)O` [MA, Maleic acid]: in series [1], the Solubility is on record as 687 ± 44 gL^−1 and the “Sp ± V (solubility of the API ± standard deviation)” value was found to be 687 ± 44 gL-1. Besides, the solubility (thermodynamic) at 3 days in series [1] (water) is 687 mg/mL (≈ 5920 mM). Further, in series [3], the pKa1 was 1.74 and the pKa2 is reported as 5.81.
`NCC1(CC(=O)O)CCCCC1` [compound 2, Gabapentin, reference compound]: the “Sp ± V (solubility of the API ± standard deviation)” value in series [1] (setting [7]) was determined as 174 ± 7 gL-1. In addition, in series [1] (water), the thermodynamic solubility at 3 days was found to be 174 mg/mL (≈ 1020 mM). Also, the “pKa of the acid function” value in series [3] is “around 4”.
On to `CC(C)C[C@H](CN)CC(=O)O` [compound 3, Pregabalin, reference compound], for which, in series [1] (aqueous medium, 25 °C, listed as Pregabalin), the “Increase of API solubility” value is “up to twentyfold”. For the same compound, in series [3], the “pKa of the acid function” value was “around 4”.
`NCC(CC(=O)O)c1ccccc1` (stereo not drawn) [compound 4, Phenibut, reference compound]: the “Sp ± V (solubility of the API ± standard deviation)” value in series [1] (setting [7]) was found to be 15 ± 0.3 gL-1. Besides, the “Increase of API solubility” value in series [1] (aqueous medium, 25 °C) is recorded as “eightfold”. Also, the solubility (thermodynamic) at 3 days in series [1] (water) came to 15 mg/mL (≈ 83.7 mM). The “pKa of the acid function” value in series [3] is on record as “around 4”.
`NCC(CC(=O)O)c1ccc(Cl)cc1` (stereo not drawn) [compound 5, Baclofen, reference compound]: in series [1], the “Increase of API solubility” value is listed as “twofold” and the “Sp ± V (solubility of the API ± standard deviation)” value turned out to be 3 ± 0.1 gL-1. The solubility (thermodynamic) at 3 days in series [1] (water) amounted to 3 mg/mL (≈ 14 mM). In addition, the “pKa of the acid function” value in series [3] is reported as “around 4”.
On to “(S)-Pregabalin maleate hydrate [(S)-3-MA•H2O]”, for which the Solubility in series [1] (setting [4]) amounted to 977 gL^−1; in series [1] (API solubility, aqueous medium, 25 °C, saturated solutions after three days, 1H-NMR, average of three samples, _M = mechanochemically prepared sample, listed as (S)-3-MA•H2O_M), 809 gL^−1; in series [1] (setting [5]), 809 ± 8 gL^−1; in series [1] (setting [6]) it was 977 ± 79 gL^−1. For the same compound, the “Sp ± V (solubility of the API ± standard deviation)” value is 809 ± 8 gL-1 in series [1] (Table S7, water, 25 °C, three days, three samples, _sol = solvent crystallization, _mill = grinding, listed as (S)-3-MA• H2O_mill) and 977 ± 79 gL-1 in series [1] (Table S7, water, 25 °C, three days, three samples, _sol = solvent crystallization, _mill = grinding, listed as (S)-3-MA• H2O_sol).
With Gabapentin maleate hydrate [2-MA•H2O], the Solubility in series [1] (setting [4]) is 241 ± 8 gL^−1 and 241 gL^−1. The “Sp ± V (solubility of the API ± standard deviation)” value in series [1] (setting [7]) is 241 ± 8 gL-1.
